Test results: article PMC7508162 (Frontiers in Pharmacology, 2020)

What was measured:
[1] = target: T1, NTPDase2 (Homo sapiens, UniProt Q9Y5L3); assay: Malachite green assay for NTPDase2; type: biochemical; design: expressed in transfected cells; host or cells: COS-7 cell membrane preparations; conditions: for Ki: ATP 50 µM, recombinant COS-7 cell membrane preparation, read-out: Ki ± SEM
T1 sequence (Q9Y5L3 1-495): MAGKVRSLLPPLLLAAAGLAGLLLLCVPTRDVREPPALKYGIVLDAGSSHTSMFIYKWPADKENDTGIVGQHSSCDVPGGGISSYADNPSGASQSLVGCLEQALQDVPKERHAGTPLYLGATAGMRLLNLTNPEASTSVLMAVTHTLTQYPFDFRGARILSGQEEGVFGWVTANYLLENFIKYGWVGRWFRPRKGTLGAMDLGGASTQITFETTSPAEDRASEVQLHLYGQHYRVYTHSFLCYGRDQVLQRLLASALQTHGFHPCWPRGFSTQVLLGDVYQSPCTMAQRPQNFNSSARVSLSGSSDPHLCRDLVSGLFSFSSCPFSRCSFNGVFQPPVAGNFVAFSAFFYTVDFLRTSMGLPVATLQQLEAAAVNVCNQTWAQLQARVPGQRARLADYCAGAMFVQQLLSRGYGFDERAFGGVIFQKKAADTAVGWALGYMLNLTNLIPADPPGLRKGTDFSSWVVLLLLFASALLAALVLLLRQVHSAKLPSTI
Method: (§1) The enzymatic activity assay was determined essentially as previously described ([Cogan et al., 1999]) with a few adaptations. The reaction buffer contained 10 mM HEPES, 2 mM CaCl2, 1 mM MgCl2, pH 7.4 in a final volume of 50 μl in transparent 96-well half area plates. For CD39 (NTPDase1), we made use of human umbilical cord membranes preparations which express high levels of the enzyme. For the other human NTPDase isoenzymes, we had to resort to recombinant expression. Human umbilical cord membrane preparations (250 ng) natively expressing high amounts of CD39, or the respective recombinant COS-7 cell membrane preparations expressing the appropriate NTPDase isoenzyme (ca. 100 ng of protein depending on enzyme activity) ([Sévigny et al., 1997]; [Lecka et al., 2013]) with or without inhibitor were preincubated at 37°C and gentle shaking (Eppendorf Thermomixer comfort at 500 rpm) for 5 min. The amount of enzyme preparation was adjusted to ensure 10–20% of substrate conversion. […] ([Kukulski et al., 2005]). After 15 min of incubation at 37°C with gentle shaking, the reaction was stopped by adding the detection reagents (20 µl malachite green solution, 0.6 mM, and 30 µl ammonium molybdate solution, 20 mM, in sulfuric acid, 1.5 M). The released (inorganic) phosphate was quantified after 20 min of gentle shaking at 25°C by measuring the absorption of the malachite green-phosphomolybdate complex at 600 nm using a BMG PheraStar FS plate reader (BMG Labtech GmbH, Ortenberg, Germany). The corrected absorption was calculated by subtracting the absorption of the negative control samples, which were incubated with denatured enzyme (90°C, 15 min), and the inhibition was calculated as follows:
(§2) % Inhibition=(B−T)/B*100%
(§3) where B is the average corrected absorption of the positive control without inhibitor and T the corrected absorption in the presence of test compound.
(§4) Full concentration-inhibition curves were determined with inhibitor concentrations ranging from 0.1 to 300 µM in the presence of 2% DMSO. Three independent experiments were performed (n = 3) and curves were calculated by the GraphPad Prism 8 software. The Ki value was calculated using the Cheng-Prusoff equation for competitive inhibitors: […]

[2] = target: T2, NTPDase8 (Homo sapiens, UniProt Q5MY95); assay: Malachite green assay for NTPDase8; type: biochemical; design: expressed in transfected cells; host or cells: COS-7 cell membrane preparations; conditions: for Ki: ATP 50 µM, recombinant COS-7 cell membrane preparation, read-out: Ki ± SEM; for % inhibition: test concentration not given
T2 sequence (Q5MY95 1-495): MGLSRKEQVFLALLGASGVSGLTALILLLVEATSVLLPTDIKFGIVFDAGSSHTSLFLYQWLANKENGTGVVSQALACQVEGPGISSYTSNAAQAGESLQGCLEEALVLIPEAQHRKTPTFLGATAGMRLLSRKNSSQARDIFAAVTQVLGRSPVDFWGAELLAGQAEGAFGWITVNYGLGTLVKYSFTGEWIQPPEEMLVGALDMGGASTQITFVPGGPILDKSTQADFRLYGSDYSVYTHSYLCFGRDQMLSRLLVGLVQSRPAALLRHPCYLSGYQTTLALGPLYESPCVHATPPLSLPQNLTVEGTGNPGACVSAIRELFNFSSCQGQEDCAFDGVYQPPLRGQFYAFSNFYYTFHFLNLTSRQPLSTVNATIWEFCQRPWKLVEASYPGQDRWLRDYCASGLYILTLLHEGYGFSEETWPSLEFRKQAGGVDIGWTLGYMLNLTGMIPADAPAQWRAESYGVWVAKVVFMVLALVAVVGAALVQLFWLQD
Method: as §1, §2, §3, §4

[3] = Metabolic stability in mouse liver microsomes; type: in vitro ADME; conditions: both sexes; mouse liver microsomes 0.5 mg/mL; compound 1 μM
Method: The experiments were performed by Pharmacelsus, Saarbrücken, Germany (https://www.pharmacelsus.com/services/in-vitro-adme/) using human and mouse liver microsomes (0.5 mg/mL, mixed gender, pooled). Compounds were tested at a concentration of 1 μM. Data points represent means of two separate experiments performed in duplicates.

Row | SMILES | NTPDase2 inhibition (in words) [1] | Ki ([1]; NTPDase2) [µM] | Ki [2] [µM] | % inhibition [2] [%] | half-life at 1 μM [3] [min] | % inhibition ([1]; NTPDase2, test concentration not given) [%]
1 | CCCCSc1nc2c(N)ncnc2n1[C@@H]1O[C@H](COP(=O)(O)OP(=O)(O)C(Br)(Br)P(=O)(O)O)[C@@H](O)[C@H]1O [Compound 31, (((((((2R,3S,4R,5R)-5-(6-Amino-8-(butylthio)-9H-purin-9-yl)-3,4-dihydroxytetrahydrofuran-2-yl)methoxy)(hydroxy)-phosphoryl)oxy)(hydroxy)phosphoryl)dibromomethyl)-phosphonic Acid] | weakly inhibit | 22.2 ± 0.5 | > 50 | 2 | < 1 | –
2 | CCN(CC)c1ncnc2c1ncn2[C@@H]1O[C@H](COP(=O)(O)OP(=O)(O)C(Br)(Br)P(=O)(O)O)[C@@H](O)[C@H]1O [ARL67156, (Dibromo((((((2R,3S,4R,5R)-5-(6-(diethylamino)-9H-purin-9-yl)-3,4-dihydroxytetrahydrofuran-2-yl)methoxy)-(hydroxy)-phosphoryl)oxy)(hydroxy)phosphoryl)methyl)-phosphonic Acid, reference compound] | – | > 50 | > 50 | 2 | < 1 | 18
3 | CCCCNc1nc2c(NC)ncnc2n1[C@@H]1O[C@H](COP(=O)(O)OP(=O)(O)C(Br)(Br)P(=O)(O)O)[C@@H](O)[C@H]1O [Compound 33, (Dibromo((((((2R,3S,4R,5R)-5-(8-(butylamino)-6-(methylamino)-9H-purin-9-yl)-3,4-dihydroxy-tetrahydrofuran-2-yl)methoxy)(hydroxy)phosphoryl)oxy)-(hydroxy)phosphoryl)methyl)-phosphonic Acid] | – | 78 ± 0.6 | > 50 | -11 | < 1 | –
